The source of these data is patent publication US20240208992A1, “MACROCYCLES AS CFTR MODULATORS” (Idorsia Pharmaceuticals Ltd, priority 2021, published 2024).

This assay deals with human F508del-CFTR (Homo sapiens, UniProt P13569, DEL508-508). Put plainly: F508del-CFTR cell surface expression (corrector activity), DiscoveRx ß-galactosidase complementation chemiluminescence assay in recombinant U2OS cell line.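 As to all read-outs here: U2OS cells co-expressing ProLink-tagged F508del-CFTR and a membrane-anchored enzyme acceptor, where more surface CFTR restores β-galactosidase activity measured by chemiluminescence.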 The following applies: for EC50: EC50, F508del-CFTR cell surface expression, U2OS cells, 16h compound incubation, geomean values; for Emax: U2OS, in relation to Emax of corrector lumacaftor (=100%), arithmetic mean values.
Sequence of human F508del-CFTR (P13569 with tags, fused parts or gaps DEL508-508): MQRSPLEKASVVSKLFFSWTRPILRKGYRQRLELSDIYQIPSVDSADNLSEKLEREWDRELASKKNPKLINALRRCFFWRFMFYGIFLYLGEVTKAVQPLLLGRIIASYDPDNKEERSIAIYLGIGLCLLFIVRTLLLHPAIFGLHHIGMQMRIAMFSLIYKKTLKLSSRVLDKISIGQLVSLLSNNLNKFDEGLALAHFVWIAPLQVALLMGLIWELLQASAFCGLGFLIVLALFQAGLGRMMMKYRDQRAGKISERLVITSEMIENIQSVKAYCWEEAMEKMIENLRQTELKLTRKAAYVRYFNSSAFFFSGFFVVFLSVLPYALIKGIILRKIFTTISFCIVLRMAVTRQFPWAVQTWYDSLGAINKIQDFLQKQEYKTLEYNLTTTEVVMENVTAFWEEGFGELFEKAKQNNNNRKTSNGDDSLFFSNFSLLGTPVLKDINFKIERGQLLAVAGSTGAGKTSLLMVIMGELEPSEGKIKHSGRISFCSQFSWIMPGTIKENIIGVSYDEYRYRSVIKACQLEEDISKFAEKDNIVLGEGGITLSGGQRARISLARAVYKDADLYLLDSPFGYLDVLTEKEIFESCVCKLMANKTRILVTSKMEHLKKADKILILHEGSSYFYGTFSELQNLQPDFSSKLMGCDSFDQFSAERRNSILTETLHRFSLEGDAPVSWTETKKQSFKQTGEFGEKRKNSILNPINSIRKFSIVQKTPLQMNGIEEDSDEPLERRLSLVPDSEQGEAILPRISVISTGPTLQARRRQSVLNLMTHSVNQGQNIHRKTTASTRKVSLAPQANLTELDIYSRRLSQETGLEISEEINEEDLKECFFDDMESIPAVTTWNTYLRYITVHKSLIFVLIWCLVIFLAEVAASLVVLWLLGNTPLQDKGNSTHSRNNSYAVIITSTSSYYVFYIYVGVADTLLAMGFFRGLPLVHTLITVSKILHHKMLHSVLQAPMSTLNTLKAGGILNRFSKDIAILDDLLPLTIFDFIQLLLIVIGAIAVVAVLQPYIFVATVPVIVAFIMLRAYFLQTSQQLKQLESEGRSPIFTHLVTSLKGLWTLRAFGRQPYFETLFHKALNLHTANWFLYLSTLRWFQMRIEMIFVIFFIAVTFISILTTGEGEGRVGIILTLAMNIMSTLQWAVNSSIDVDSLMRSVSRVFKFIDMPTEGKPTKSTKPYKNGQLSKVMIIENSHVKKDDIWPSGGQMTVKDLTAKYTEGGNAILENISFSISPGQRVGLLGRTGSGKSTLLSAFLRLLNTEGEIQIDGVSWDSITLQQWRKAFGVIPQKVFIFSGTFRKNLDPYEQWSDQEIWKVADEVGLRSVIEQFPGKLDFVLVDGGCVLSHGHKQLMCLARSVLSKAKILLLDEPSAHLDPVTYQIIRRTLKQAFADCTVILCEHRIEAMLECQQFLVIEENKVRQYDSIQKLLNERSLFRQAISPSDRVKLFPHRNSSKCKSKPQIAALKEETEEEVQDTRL

As to `Cc1nc2ccc3c(c2o1)C(=O)N[C@H](C(=O)NCCc1cc(C(C)C)no1)CC(=O)N(C)[C@@H](CC(C)C)C(=O)N(C)C1(CC1)C(=O)N[C@H](Cc1ccccc1)CO3` [Example 762, (8′R,14'S,18'S)-8′-Benzyl-14′-isobutyl-N-(2-(3-isopropylisoxazol-5-yl)ethyl)-2′,12′,15′-trimethyl-10′,13′,16′,20′-tetraoxo-7′,8′,9′,10′,13′,14′,15′,16′,17′,18′,19′,20′-dodecahydro-12′H-spiro[cyclopropane-1,11′-oxazolo[4′,5′:5,6]benzo[1,2-p][1]oxa[4,7,10,14]tetraazacycloheptadecine]-18′-carboxamide], the EC50 – broadly, the concentration at which the effect is half-maximal – was 929 nM and the Emax (commonly the greatest response seen or fitted, relative to the assay's reference) turned out to be 333%.
The matching figures for `CC(C)C[C@H]1C(=O)N(C)C2(CC2)C(=O)N[C@H](Cc2ccccc2)COc2cnc3ccccc3c2C(=O)N[C@H](C(=O)NCCc2nc(Cc3ccccc3)no2)CC(=O)N1C` [Example 763, (3'S,7'S,13′R)-13′-Benzyl-N-(2-(3-benzyl-1,2,4-oxadiazol-5-yl)ethyl)-7′-isobutyl-6′,9′-dimethyl-1′,5′,8′,11′-tetraoxo-2′,3′,4′,5′,6′,7′,8′,9′,11′,12′,13′,14′-dodecahydro-1′H-spiro[cyclopropane-1,10′-[1]oxa[4,7,10,14]tetraazacycloheptadecino[17,16-c]quinoline]-3′-carboxamide]: 264 nM and 181%.
As for `CC(C)C[C@H]1C(=O)N(C)C2(CC2)C(=O)N[C@H](Cc2ccccc2)COc2cnc3ccccc3c2C(=O)N[C@H](C(=O)NCCc2nc(CC3CC3)no2)CC(=O)N1C` [Example 764, (3'S,7'S,13′R)-13′-Benzyl-N-(2-(3-(cyclopropylmethyl)-1,2,4-oxadiazol-5-yl)ethyl)-7′-isobutyl-6′,9′-dimethyl-1′,5′,8′,11′-tetraoxo-2′,3′,4′,5′,6′,7′,8′,9′,11′,12′,13′,14′-dodecahydro-1′H-spiro[cyclopropane-1,10′-[1]oxa[4,7,10,14]tetraazacycloheptadecino[17,16-c]quinoline]-3′-carboxamide], the EC50 was found to be 374 nM and the Emax is 315%.
Taken in the same sequence, the figures for `COc1noc(CCNC(=O)[C@@H]2CC(=O)N(C)[C@@H](CC(C)C)C(=O)N(C)[C@H](C)C(=O)N[C@H](Cc3ccccc3)COc3ccnc(OC)c3C(=O)N2)c1F` [Example 765, (3R,6R,9S,13S)-3-benzyl-N-(2-(4-fluoro-3-methoxyisoxazol-5-yl)ethyl)-9-isobutyl-16-methoxy-6,7,10-trimethyl-5,8,11,15-tetraoxo-2,3,4,5,6,7,8,9,10,11,12,13,14,15-tetradecahydropyrido[3,4-p][1]oxa[4,7,10,14]tetraazacycloheptadecine-13-carboxamide] were 300 nM and 323%.
As to `COc1noc(CCNC(=O)[C@@H]2CC(=O)N(C)[C@@H](CC(C)C)C(=O)N3CCCC[C@@H]3C(=O)N[C@H](Cc3ccccc3)COc3cc(C)nc(OC)c3C(=O)N2)c1F` [Example 766, (7S,11S,17aR,20R)-20-benzyl-N-(2-(4-fluoro-3-methoxyisoxazol-5-yl)ethyl)-11-isobutyl-4-methoxy-2,10-dimethyl-5,9,12,18-tetraoxo-5,6,7,8,9,10,11,12,15,16,17,17a,18,19,20,21-hexadecahydro-14H-dipyrido[2,1-f:3′,4′-p][1]oxa[4,7,10,14]tetraazacycloheptadecine-7-carboxamide], the EC50 was determined as 154 nM and the Emax came out at 393%.
With `COc1noc(CCNC(=O)[C@@H]2CC(=O)N(C)[C@@H](CC(C)C)C(=O)N3CCCC[C@@H]3C(=O)N[C@H](Cc3ccccc3)COc3ccnc(OC)c3C(=O)N2)c1F` [Example 767, (7S,11S,17aR,20R)-20-benzyl-N-(2-(4-fluoro-3-methoxyisoxazol-5-yl)ethyl)-11-isobutyl-4-methoxy-10-methyl-5,9,12,18-tetraoxo-5,6,7,8,9,10,11,12,15,16,17,17a,18,19,20,21-hexadecahydro-14H-dipyrido[2,1-f:3′,4′-p][1]oxa[4,7,10,14]tetraazacycloheptadecine-7-carboxamide], the EC50 was determined as 212 nM and the Emax stood at 390%.
The matching figures for `COc1cccc(CCNC(=O)[C@@H]2CC(=O)N(C)[C@@H](CC(C)C)C(=O)N(C)[C@H](C)C(=O)N[C@H](Cc3ccccc3)COc3ccnc(OC)c3C(=O)N2)c1` [Example 768, (3R,6R,9S,13S)-3-benzyl-9-isobutyl-16-methoxy-N-(3-methoxyphenethyl)-6,7,10-trimethyl-5,8,11,15-tetraoxo-2,3,4,5,6,7,8,9,10,11,12,13,14,15-tetradecahydropyrido[3,4-p][1]oxa[4,7,10,14]tetraazacycloheptadecine-13-carboxamide]: 497 nM and 292%.
Turning to `COc1cc(CCNC(=O)[C@@H]2CC(=O)N(C)[C@@H](CC(C)C)C(=O)N3CCCC[C@@H]3C(=O)N[C@H](Cc3ccccc3)COc3ccc4ncc(F)cc4c3C(=O)N2)on1` [Example 769, (9S,13S,19aR,22R)-22-benzyl-5-fluoro-13-isobutyl-N-(2-(3-methoxyisoxazol-5-yl)ethyl)-12-methyl-7,11,14,20-tetraoxo-7,8,9,10,11,12,13,14,17,18,19,19a,20,21,22,23-hexadecahydro-16H-pyrido[2′,1′:6,7][1]oxa[4,7,10,14]tetraazacycloheptadecino[16,17-f]quinoline-9-carboxamide], the EC50 worked out at 140 nM and the Emax was 346%.
With `COc1cc(CCNC(=O)[C@@H]2CC(=O)N(C)[C@@H](CC(C)C)C(=O)N3CCCC[C@H]3C(=O)N[C@H](Cc3ccccc3)COc3ccc4ncc(F)cc4c3C(=O)N2)on1` [Example 770, (9S,13S,19aS,22R)-22-benzyl-5-fluoro-13-isobutyl-N-(2-(3-methoxyisoxazol-5-yl)ethyl)-12-methyl-7,11,14,20-tetraoxo-7,8,9,10,11,12,13,14,17,18,19,19a,20,21,22,23-hexadecahydro-16H-pyrido[2′,1′:6,7][1]oxa[4,7,10,14]tetraazacycloheptadecino[16,17-f]quinoline-9-carboxamide], the EC50 came to 1000 nM and the Emax was 228%.
For the compound `COc1cc(CCNC(=O)[C@@H]2CC(=O)N(C)[C@@H](CC(C)C)C(=O)N(C)[C@H](C)C(=O)N[C@H](Cc3ccccc3)COc3ccnc(OC)c3C(=O)N2)on1` [Example 771, (3R,6R,9S,13S)-3-benzyl-9-isobutyl-16-methoxy-N-(2-(3-methoxyisoxazol-5-yl)ethyl)-6,7,10-trimethyl-5,8,11,15-tetraoxo-2,3,4,5,6,7,8,9,10,11,12,13,14,15-tetradecahydropyrido[3,4-p][1]oxa[4,7,10,14]tetraazacycloheptadecine-13-carboxamide], the EC50 amounted to 597 nM and the Emax was determined as 299%.
Regarding `COc1cc(CCNC(=O)[C@@H]2CC(=O)N(C)[C@@H](CC(C)C)C(=O)N(C)[C@H](C)C(=O)N[C@H](Cc3ccccc3)COc3cc(C)nc(OC)c3C(=O)N2)on1` [Example 772, (3R,6R,9S,13S)-3-benzyl-9-isobutyl-16-methoxy-N-(2-(3-methoxyisoxazol-5-yl)ethyl)-6,7,10,18-tetramethyl-5,8,11,15-tetraoxo-2,3,4,5,6,7,8,9,10,11,12,13,14,15-tetradecahydropyrido[3,4-p][1]oxa[4,7,10,14]tetraazacycloheptadecine-13-carboxamide], the EC50 was determined as 514 nM and the Emax was found to be 343%.
Consider `CC[C@@H]1C(=O)N[C@H](Cc2ccccc2)COc2cc(C)nc(OC)c2C(=O)N[C@H](C(=O)NCCc2cc(C)no2)CC(=O)N(C)[C@@H](CC(C)C)C(=O)N1C` [Example 773, (3R,6R,9S,13S)-3-benzyl-6-ethyl-9-isobutyl-16-methoxy-7,10,18-trimethyl-N-(2-(3-methylisoxazol-5-yl)ethyl)-5,8,11,15-tetraoxo-2,3,4,5,6,7,8,9,10,11,12,13,14,15-tetradecahydropyrido[3,4-p][1]oxa[4,7,10,14]tetraazacycloheptadecine-13-carboxamide], for which the half-maximal effective concentration (EC50) is 841 nM and the Emax was 339%.
With `CC[C@@H]1C(=O)N[C@H](Cc2ccccc2)COc2cc(C)nc(OC)c2C(=O)N[C@H](C(=O)NCCc2cccc(OC)c2)CC(=O)N(C)[C@@H](CC(C)C)C(=O)N1C` [Example 774, (3R,6R,9S,13S)-3-benzyl-6-ethyl-9-isobutyl-16-methoxy-N-(3-methoxyphenethyl)-7,10,18-trimethyl-5,8,11,15-tetraoxo-2,3,4,5,6,7,8,9,10,11,12,13,14,15-tetradecahydropyrido[3,4-p][1]oxa[4,7,10,14]tetraazacycloheptadecine-13-carboxamide], the EC50 came out at 751 nM and the Emax worked out at 345%.
`COc1nc(C)cc2c1C(=O)N[C@H](C(=O)NCCc1cc(C)no1)CC(=O)N(C)[C@@H](CC(C)C)C(=O)N(C)[C@H](CC(F)F)C(=O)N[C@H](Cc1ccccc1)CO2` [Example 775, (3R,6R,9S,13S)-3-benzyl-6-(2,2-difluoroethyl)-9-isobutyl-16-methoxy-7,10,18-trimethyl-N-(2-(3-methylisoxazol-5-yl)ethyl)-5,8,11,15-tetraoxo-2,3,4,5,6,7,8,9,10,11,12,13,14,15-tetradecahydropyrido[3,4-p][1]oxa[4,7,10,14]tetraazacycloheptadecine-13-carboxamide]: the EC50 was found to be 875 nM and the Emax was determined as 359%.
With `COc1cc(CCNC(=O)[C@@H]2CC(=O)N(C)[C@@H](CC(C)C)C(=O)N(C)[C@H](CC(F)(F)F)C(=O)N[C@H](Cc3ccccc3)COc3ccnc(OC)c3C(=O)N2)on1` [Example 776, (3R,6R,9S,13S)-3-benzyl-9-isobutyl-16-methoxy-N-(2-(3-methoxyisoxazol-5-yl)ethyl)-7,10-dimethyl-5,8,11,15-tetraoxo-6-(2,2,2-trifluoroethyl)-2,3,4,5,6,7,8,9,10,11,12,13,14,15-tetradecahydropyrido[3,4-p][1]oxa[4,7,10,14]tetraazacycloheptadecine-13-carboxamide], the EC50 worked out at 325 nM and the Emax worked out at 360%.
